In PMC9993459, “A novel selective spleen tyrosine kinase inhibitor SKI-O-703 (cevidoplenib) ameliorates lupus nephritis and serum-induced arthritis in murine models” (Clinical and Experimental Immunology, 2022):

What was measured:
KOR = test: Kinase assay (LANCE Ultra TR-FRET), KOR; type: biochemical; conditions: kinase activity, TR-FRET
Protocol: Kinase assays were conducted in 384-well plates using LANCE ultra 66 time-resolved fluorescence resonance energy transfer (TR-FRET) methods, according to the manufacturer’s instructions (Perkin-Elmer). In brief, each kinase was pre-incubated with a serially diluted compound for 30 min, incubated with ULight poly-GT peptide substrate and ATP for up to 1 h. Thirty minutes after adding Eu-labeled anti-phosphopeptides Ab diluted in LANCE Detection Buffer, LANCE signals were measured with an EnVision multilabel reader (Perkin-Elmer).

mouse primary B cells = test: CP670-dilution proliferation assay, BCR crosslinking (anti-IgM) stimulated B cells; type: cell-based; conditions: up to 1 μM
Protocol: Splenic CD19^+ B cells from C57BL/6 mice were sorted by MACS (Milteny Biotec), stained with 3 μM cell proliferation dye eFluor 670 (CP670; eBioscience), and cultured for 72 h in the presence of either 10 μg/ml LPS (Sigma Aldrich) or 5 μg/ml anti-mouse IgM (Jackson Immuno Research Laboratories), 10 μg/ml anti-CD40 mAb (Biolegend) and 10 ng/ml IL-4 (Peprotech), and assayed by FACS. To detect apoptotic cells, unstimulated cells were cultured for 24 h, stained with Annexin V and 7-aminoactinomycin D (7-AAD), and assayed by FACS.
Figure 2: in vitro effects of SKI-O -703 on the proliferation, survival, and differentiation of B cells. Mouse primary B cells were labeled with CP670, and stimulated with either anti-IgM mAb, CD40L and IL-4 (A) or LPS (B) for 72 h in the presence or absence of SKI-O-703 and tofacitinib at the indicated concentrations; they were then assayed by FACS. (C and D) Mouse primary B cells were cultured as in A and B for 24 h, stained with Annexin V and 7-AAD, and assayed by FACS. Representative FACS profiles and graphs displaying mean Annexin V-positivity are shown. (E) Human primary B cells were stimulated with CpG ODN plus IL-2 (to detect IgM and IgG) or CpG ODN 2006 plus IFN-α (to detect IL-6) in the presence or absence of inhibitors. The culture supernatants were assayed by ELISA. Graphs are expressed as % positivity relative to the controls (without inhibitor). […]

human primary B cells = test: IgM, IgG and IL-6 secretion by stimulated human primary B cells (ELISA); type: cell-based; conditions: human primary B cells
Protocol: Human CD19^+ B cells (Lonza) were pre-treated with inhibitors for 1 h and stimulated for 24 h with 50 nM CpG ODN 2006 plus 10 ng/ml IL-2 or 1 μM CpG ODN 2006 plus 20 ng/ml IFN-α. Culture supernatants were assayed by ELISA to detect secreted IgG, IgM, and IL-6, according to the manufacturer’s instructions.
Figure 2: in vitro effects of SKI-O -703 on the proliferation, survival, and differentiation of B cells. Mouse primary B cells were labeled with CP670, and stimulated with either anti-IgM mAb, CD40L and IL-4 (A) or LPS (B) for 72 h in the presence or absence of SKI-O-703 and tofacitinib at the indicated concentrations; they were then assayed by FACS. (C and D) Mouse primary B cells were cultured as in A and B for 24 h, stained with Annexin V and 7-AAD, and assayed by FACS. Representative FACS profiles and graphs displaying mean Annexin V-positivity are shown. (E) Human primary B cells were stimulated with CpG ODN plus IL-2 (to detect IgM and IgG) or CpG ODN 2006 plus IFN-α (to detect IL-6) in the presence or absence of inhibitors. The culture supernatants were assayed by ELISA. Graphs are expressed as % positivity relative to the controls (without inhibitor). The data are representative of 2–3 independent experiments. *P < 0.05, **P < 0.01, and ***P < 0.001, compared with vehicle control by two-tailed unpaired Students t-tests.

NZB/W F1 mice = test: NZB/W mouse model of SLE / lupus nephritis, oral dosing; type: in vivo; conditions: 30 mpk oral once daily
Protocol: NZB/W female mice aged 18 weeks were assigned to four groups by distributing mice by body weight and anti-dsDNA IgG titer equivalently across the groups. Each group of mice was administered orally with 42 mg per kg body weight (mpk) of SKI-O-703 dissolved in 50 mM citric acid, 84 mpk of SKI-O-703, 30 mpk of tofacitinib (Selleckchem) dissolved in 0.5% carboxymethyl cellulose (Sigma Aldrich) containing 0.025% Tween 20, or a mixture of the two vehicles. The drugs were given once daily up to 34 weeks of age. Body weight was measured every 2 weeks and serum was collected every 4 weeks. At the termination of the experiments (34 weeks of age), serum, urine, spleen, BM, and kidneys were removed post mortem and assayed by histopathological and biochemical methods as below. Levels of blood urea nitrogen (BUN) and creatinine were measured by Knotus (Incheon, Korea).
Kidneys removed from the NZB/W mice were fixed in 4% paraformaldehyde, embedded in paraffin, sectioned at 3 μm thickness, and stained with periodic acid-Schiff (PAS) and hematoxylin (Sigma Aldrich). […] Glomerular size was measured using Image J software. To assess the glomerular size and hypercellularity of each mouse, more than 20 glomeruli per mouse were individually examined and averaged.
Kidneys and spleens of NZB/W mice were embedded in OCT compound (Sakura Finetek, Torrance, CA, USA) and snap-frozen in liquid nitrogen. Frozen sections were fixed in acetone and blocked with 10% normal donkey serum (Sigma Aldrich). Kidney sections were stained with a 1:200 dilution of anti-IgG-biotin (Sigma Aldrich), anti-IgM-biotin (Southern Biotech) and anti-C3-biotin (Bioss), followed by reaction with 1:200-dilution of streptavidin-cy3 (Invitrogen). Spleen sections were stained with anti-GL7-FITC, anti-CD4-APC, and anti-IgD-PE (all from BD Biosciences or eBioscience). Fluorescence images were acquired using a TCS SP5 confocal microscope (Leica). The area of GCs composed with GL7^+ cells per image was calculated using ImageJ software (NIH, Bethesda, MD, USA).
Titers of anti-dsDNA IgG Ab were measured by ELISA, as described previously. In brief, sera were diluted 1/10 000 to 1/50 000 in PBS and applied to immunosorbent plates (Nunc) precoated with 5 μg/ml poly-L-lysine and 5 μg/ml thymic DNA (Sigma Aldrich). The serum containing the highest titer of anti-dsDNA IgG was serially diluted and used as standard. The plates were incubated with anti-mouse IgG-biotin (Sigma Aldrich) and streptavidin-HRP (BD Biosciences). The concentration of albumin in urine was measured by quantitative ELISA using a mouse albumin ELISA kit (Bethyl), according to the manufacturer’s instructions. The concentration of serum B-cell activating factor of the TNF family (BAFF) was quantitated using a BAFF/BLys/TNFSF13B ELISA Kit (R&D Systems).
Single-cell suspensions of spleen and LN cells were prepared as previously described. Joint tissues from hind paws of KSTA mice were dissected free of soft tissue and bones, digested with 100 μg/ml Liberase (Roche) for 45 min at 37 °C, and filtered through a 70-μm-pore cell strainer (SPL Life Sciences) to prepare single cell suspensions of synovial infiltrates. The single cell suspensions were stained with an appropriate combination of mAbs and analyzed by FACS. The mAbs used were: CD138-PE, B220-PerCP or -APC-cy7, FAS-PE, CD19-PerCP or -APC, CD21-FITC or -APC, CD43-APC, CD23-PE-cy7, CD8a-PE, CD25-APC-cy7, CXCR5-biotin, GL7-FITC, CD45.2-FITC, CD27-FITC, Ki-67-FITC, Gr-1-FITC, CD4-FITC or -APC-cy7, phospho-Syk-PE, CD11b-PE or -PerCP, PD-1-APC, CD44-APC-cy7, and F4/80-PerCP mAbs (all from BD Biosciences, eBioscience or Biolegend). Streptavidin-PerCP was purchased from BD Biosciences.
Splenic CD19^+ B cells from NZB/W mice were sorted by MACS, and lysed with Trizol reagent (Invitrogen) followed by standard methods of total RNA purification. The RNA was assayed by RT and quantitative PCR as described. […]

Structure (SMILES) | IC50 (KOR) | Proliferation and death of primary B and T cells (mouse primary B cells) | IL-6 production (human primary B cells; CpG ODN 2006 plus IFN-α) | Ab production (human primary B cells; CpG ODN plus IL-2) | Body weights (NZB/W F1 mice; 18-34 weeks of age) | Spleen weights (NZB/W F1 mice; 18-34 weeks of age) | Serum anti-dsDNA IgG Ab titer (NZB/W F1 mice; trend to reduction at 26 and 30 weeks of age)
COc1cc(Nc2ncc(F)c(Nc3ccc4c(n3)NC(=O)C(C)(C)O4)n2)cc(OC)c1OC [R406, reference compound] | 18.8 nM |  |  |  |  |  | 
C[C@@H]1CCN(C(=O)CC#N)C[C@@H]1N(C)c1ncnc2[nH]ccc12 [tofacitinib, reference compound] |  | did not significantly inhibit | even increased IL-6 production | minimal effect | reduced both body weights and spleen weights | reduced both body weights and spleen weights | did not reach statistical significance
